Assays:
NFκB = experiment: NFκB-driven luciferase reporter assay in LPS-challenged RAW 264.7 macrophages; type: cell-based; conditions: Mus musculus, RAW264.7; RAW 264.7, LPS 200 ng/mL; linked bioactive; read-out: IC50 in an NFkB assay
Method: RAW 264.7 cells transfected with an NFκB-driven luciferase reporter were plated in 96 well plates. Cells were treated with Vehicle (0.1% ethanol) or test compounds for 2 hours. As a positive control for inhibition of NFκB signaling, 6 wells were treated with […]. Cells were then challenged with 200 ng/mL LPS for 3 hours in the presence of test compounds. A subset of wells treated with vehicle remained unstimulated with LPS to determine the floor signal of the assay. NFκB driven luciferase activity was developed by addition of BriteLite luciferase kit (PERKIN ELMER®) and measured using a Victor V plate reader. NFκB activity (luciferase activity) for each treatment was normalized to Vehicle wells treated with LPS (% NFκB Response).

FAAH-1 = target: T1, FAAH-1 (Homo sapiens, UniProt O00519); experiment: Hydrolysis in homogenate of COS-7 cells overexpressed with FAAH-1; type: biochemical
T1 construct: expressed in transfected cells; host or cells: COS-7
T1 sequence (O00519 1-579): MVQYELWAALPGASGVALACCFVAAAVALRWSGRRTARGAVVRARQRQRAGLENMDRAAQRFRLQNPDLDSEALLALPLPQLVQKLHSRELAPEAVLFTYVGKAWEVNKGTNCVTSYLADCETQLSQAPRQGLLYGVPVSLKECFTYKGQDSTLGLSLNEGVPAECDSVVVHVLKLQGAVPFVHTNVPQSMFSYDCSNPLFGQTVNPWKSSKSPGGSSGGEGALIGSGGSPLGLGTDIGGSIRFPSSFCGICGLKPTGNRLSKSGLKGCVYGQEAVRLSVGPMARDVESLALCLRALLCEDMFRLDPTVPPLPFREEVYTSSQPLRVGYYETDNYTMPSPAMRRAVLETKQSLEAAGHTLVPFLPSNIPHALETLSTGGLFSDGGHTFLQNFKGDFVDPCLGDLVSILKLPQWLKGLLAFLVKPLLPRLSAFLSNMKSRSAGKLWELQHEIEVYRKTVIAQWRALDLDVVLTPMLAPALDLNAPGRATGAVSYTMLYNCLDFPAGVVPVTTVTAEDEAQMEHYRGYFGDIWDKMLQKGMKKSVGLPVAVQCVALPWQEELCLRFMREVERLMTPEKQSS
Method: (§1) Hydrolysis experiments using COS-7 cells overexpressed with either FAAH-1 or FAAH-2. […] The next day, cells were transfected, in duplicate, with 10 μg Vector control, flag-FAAH-1 or flag-FAAH-2 plasmids using Lipofectamine 2000 (Invitrogen) according to the manufacturer's protocol. 24 hours post transfection, cells were washed 1× in cold PBS, aspirated dry, and then scraped off the plate in the presence of 0.6 mL reaction buffer (50 mM HEPES, pH 9.0; 1 mM EDTA). Cells were then homogenated using a VWR VDI 12 Adaptable Homogenizer, on ice for 1 minute, and the sample was then clarified by centrifugation at 6,000 g for 5 minutes. The supernatant of this homogenated fraction was then used for FAAH hydrolysis assays. […] Gel densitometry was performed and the % FAAH extracted in each successive lysis conditions was determined according to standard procedures.
(§2) The following hydrolysis experiments were performed using COS-7 cells containing overexpressed FAAH-1 or FAAH-2. […] Briefly, the hydrolysis experiments were carried out in Eppendorf tubes using procedures similar to the one described above. […] At time=0, 1, and 3 h, the protein was precipitated with acetonitrile.

[1] = test system: ApoB secretion in HepG2 cells; experiment: ApoB secretion in HepG2 cells (oleate stimulated, ELISA); type: cell-based; conditions: Homo sapiens, linked bioactive
Method: HcpG2 cells (ATCC) were seeded at 10,000 cells per well in 96 well plates. After adhering overnight, growth media (10% FBS in DMEM) was removed and cells were serum starved for 24 hours in DMEM containing 0.1% fatty acid free bovine serum albumin (BSA, SIGMA®). Cells were then treated with the compounds. Niacin at 5 mM was used as a positive control. All treatments were performed in triplicate. Simultaneous with compound treatment, ApoB secretion was stimulated with the addition of […] complexed to fatty acid free BSA in a 5:1 molar ratio. Incubation with compounds and oleate was conducted for 24 hours. Media supernatants were removed and ApoB concentrations were measured using ELISA kits (MABTECH AB®). Percent inhibition of ApoB secretion was determined by normalizing data to vehicle treated wells. For a given compound, an IC50 (concentration at which 50% of ApoB secretion is inhibited) can also be determined by using a 4 parameter-fit inhibition curve model (GRAPH PAD PRISM®). In each experiment, cell viability was determined using the ATPlite 1-Step kit (PERKIN ELMER®), such that compound effects due to cytotoxicity could be monitored.

FAAH-2 = target: T2, FAAH-2 (Homo sapiens, UniProt Q6GMR7); experiment: Hydrolysis in homogenate of COS-7 cells overexpressed with FAAH-2; type: biochemical; conditions: FIG. 9B; 5 μM inhibitor
T2 construct: expressed in transfected cells; host or cells: COS-7
T2 sequence (Q6GMR7 1-532): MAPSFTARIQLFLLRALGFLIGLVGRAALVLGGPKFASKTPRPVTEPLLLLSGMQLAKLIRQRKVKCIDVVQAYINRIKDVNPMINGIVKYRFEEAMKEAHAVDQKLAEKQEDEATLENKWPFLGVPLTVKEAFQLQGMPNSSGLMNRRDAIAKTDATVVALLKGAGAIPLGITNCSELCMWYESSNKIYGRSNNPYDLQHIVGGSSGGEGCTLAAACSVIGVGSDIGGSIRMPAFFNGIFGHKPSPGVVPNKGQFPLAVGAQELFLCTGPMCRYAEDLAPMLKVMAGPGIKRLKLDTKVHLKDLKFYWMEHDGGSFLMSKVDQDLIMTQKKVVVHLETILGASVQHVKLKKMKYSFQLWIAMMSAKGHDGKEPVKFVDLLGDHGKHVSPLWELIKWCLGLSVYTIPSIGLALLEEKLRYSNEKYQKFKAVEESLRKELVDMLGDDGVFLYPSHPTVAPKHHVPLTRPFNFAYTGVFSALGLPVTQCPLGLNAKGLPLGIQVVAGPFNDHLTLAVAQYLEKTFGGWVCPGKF
Method: as §1, §2

[2] = Rat liver lysate hydrolysis assay (FAAH and thiol reductase promoted cleavage); type: in vitro ADME
Method: The rat liver lysate hydrolysis experiment was performed in Eppendorf tubes, by adding the necessary amount of water for the assay first. A 10× buffer solution with final concentrations of HEPES and EDTA of 50 mM and 1 mM respectively was prepared from 500 mM HEPES and 10 mM EDTA in water. Rat liver lysate was removed from −80° C. storage, thawed and centrifuged at 4000 g for 5 min. A volume of the supernatant was transferred to the Eppendorf tube yielding a final concentration in the assay of 3 mg/mL rat liver lysate. The tube was gently inverted to mix the components. The reactions are then place in a 37° C. incubator for 20 min allowing the reaction mixture to reach 37° C. before the reaction was initiated.
To initiate the hydrolysis reaction, the samples were removed from the incubator and the compounds of the invention were added, as a DMSO solution, prepared in a manner to allow for <1% final DMSO concentration and 5 μM final compound concentration. […]
This rat liver lysate hydrolysis assay was used to assess the hydrolysis of bis-fatty acid linked bioactives into individual components. As an illustrative example, the bis-fatty acid cystamine linked bioactive VI-7 was assessed in this rat liver lysate assay. […] The amount of cysteamine that was formed could be quantitated by LC-MS/MS by carrying out an initial derivatization with Ellman's reagent. […] 50 μl of the tissue lysate reaction mixture was transferred to a 1.5 mL eppendorf tube and derivatization of cysteamine was performed with 50 μl 10 mM Ellman's reagent (5,5′ dithio-bis(2-nitrobenzoic acid). Samples were incubated at room temperature for 10 minutes, vortex for 1 minute followed by protein precipitation by addition of 300 μl of acetonitrile containing IS and 0.2% butylated hydroxyanisole (BHA). Supernatant was transferred to a clean LC vial and 10 μl of the sample was injected on LC-MS/MS for the measurement of cysteamine. The concentration of cysteamine was measured by LC-MS/MS. […]

Compound: CC/C=C\C/C=C\C/C=C\C/C=C\C/C=C\C/C=C\CCC(=O)NCCNC(=O)c1ccccc1O [Compound I-1, N-(2-(4Z,7Z,10Z,13Z,16Z,19Z)-docosa-4,7,10,13,16,19-hexaenamidoethyl)-2-hydroxybenzamide]
- IC50 (NFκB): 30 to 35 µM
- hydrolysis (disappearance of compound) in COS-7 cells overexpressed with FAAH-1 (FAAH-1; FIG. 9A, 5 μM, absence of any inhibitor, 0-3 h): significant hydrolysis
- appearance of DHA from compound, FAAH-1 (FAAH-1; FIG. 9C, 5 μM, no inhibitor): time dependent formation of DHA

Compound: CC/C=C\C/C=C\C/C=C\C/C=C\C/C=C\CCCC(=O)NCCNC(=O)c1cccnc1 [III-1, N-(2-(5Z,8Z,11Z,14Z,17Z)-icosa-5,8,11,14,17-pentaenamidoethyl)nicotinamide]
- IC50 [1]: 50 µM

Compound: CC/C=C\C/C=C\C/C=C\C/C=C\C/C=C\C/C=C\CCC(=O)NCCNC(=O)c1cccnc1 [III-2, N-(2-(4Z,7Z,10Z,13Z,16Z,19Z)-docosa-4,7,10,13,16,19-hexaenamidoethyl)nicotinamide]
- IC50 [1]: 50 µM

Compound: CC/C=C\C/C=C\C/C=C\C/C=C\C/C=C\C/C=C\CCC(=O)NCCNC(=O)/C=C/C(=O)OC [IV-1, (E)-methyl 4-(2-(4Z,7Z,10Z,13Z,16Z,19Z)-docosa-4,7,10,13,16,19-hexaenamidoethylamino)-4-oxobut-2-enoate]
- IC50 (NFκB): 16 µM

Compound: O=C(Nc1cccnc1)N1CCC(Cc2cccc(Oc3ccc(C(F)(F)F)cn3)c2)CC1 [PF-3845]
- effect of inhibitor on hydrolysis of compound I-1, FAAH-2 (FAAH-2): not as effective as URB597
- effect of FAAH inhibitor on formation of cysteamine from compound VI-7 in rat liver lysate ([2]; FIG. 7B, presence of inhibitor): essentially no increase in cysteamine
- effect of inhibitor on rate of hydrolysis of compound I-1, FAAH-1 (FAAH-1; FIG. 9A, 5 μM inhibitor): significantly reduced
- effect of inhibitor on rate of formation of DHA from compound I-1, FAAH-1 (FAAH-1; FIG. 9C, 5 μM inhibitor): significantly inhibited

Compound: CC/C=C\C/C=C\C/C=C\C/C=C\C/C=C\C/C=C\CCC(=O)N1CCN(C(=O)CCC/C=C\C/C=C\C/C=C\C/C=C\C/C=C\CC)CC1 [VI-1, (4Z,7Z,10Z,13Z,16Z,19Z)-1-[4-((5Z,8Z,11Z,14Z,17Z)-icosa-5,8,11,14,17-pentaenoyl)-piperazin-1-yl]-docosa-4,7,10,13,16,19-hexaen-1-one]
- IC50 [1]: 10 µM

Compound: CC/C=C\C/C=C\C/C=C\C/C=C\C/C=C\C/C=C\CCC(=O)NCCNC(=O)CCC/C=C\C/C=C\C/C=C\C/C=C\C/C=C\CC [VI-5, (4Z,7Z,10Z,13Z,16Z,19Z)-docosa-4,7,10,13,16,19-hexaenoic acid [2-((5Z,8Z,11Z,14Z,17Z)-icosa-5,8,11,14,17-pentaenoylamino)-ethyl]-amide]
- IC50 (NFκB): 63 µM

Compound: CC/C=C\C/C=C\C/C=C\C/C=C\C/C=C\C/C=C\CCC(=O)NCCNC(=O)CC/C=C\C/C=C\C/C=C\C/C=C\C/C=C\C/C=C\CC [VI-6, (4Z,7Z,10Z,13Z,16Z,19Z)-docosa-4,7,10,13,16,19-hexaenoic acid [2-((4Z,7Z,10Z,13Z,16Z,19Z)-docosa-4,7,10,13,16,19-hexaenoylamino)-ethyl]-amide]
- IC50 (NFκB): 68 µM

Compound: CC/C=C\C/C=C\C/C=C\C/C=C\C/C=C\C/C=C\CCC(=O)NCCSSCCNC(=O)CCC/C=C\C/C=C\C/C=C\C/C=C\C/C=C\CC [VI-7, (4Z,7Z,10Z,13Z,16Z,19Z)-docosa-4,7,10,13,16,19-hexaenoic acid {2-[2-((5Z,8Z,11Z,14Z,17Z)-icosa-5,8,11,14,17-pentaenoylamino)-ethyldisulfanyl]-ethyl}-amide]
- hydrolysis in rat liver lysate ([2]; FIG. 7A, 5 μM compound, 3 mg/mL rat liver lysate, 37° C.): time-dependent hydrolysis
- formation of cysteamine in rat liver lysate ([2]; FIG. 7B, absence of the FAAH inhibitor PF-3845): time dependent formation of cysteamine

— US20140315786A1, “USE OF INTRACELLULAR ENZYMES FOR THE RELEASE OF COVALENTLY LINKED BIOACTIVES” (Catabasis Pharmaceuticals, Inc., priority 2011, published 2014)
